Measured values from patent US9670227B2, “Thienopyrimidine derivatives, a process for their preparation and pharmaceutical compositions containing them” (LES LABORATOIRES SERVIER, priority 2013, dated 2017).
Like-named read-outs stand apart in the source and are kept apart here.

Target: Mcl-1 protein (UniProtKB primary accession number: Q07820) (Homo sapiens, UniProt Q07820)
Experiment: Inhibition of Mcl-1 by fluorescence polarisation, Method 1
Assay type: binding
Details: for IC50: read-out: IC50 (M) Mcl-1 FP
How it was run: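 An 11-point DMSO dilution of compound is mixed with buffer (10 mM HEPES, 150 mM NaCl, 0.05% Tween 20, pH 7.4) carrying 1 nM fluorescein-labelled ligand and 5 nM Mcl-1, final concentrations. Displacement is monitored by fluorescence polarisation.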

[1] = fluorescence polarisation, Method 1, or Method 2
[2] = fluorescence polarisation test, Method 2 values are underlined in the patent (underlining not visible here)
[3] = fluorescence polarisation test, Method 1, or Method 2 where the value is underlined (underlining not visible)

Sequence of Mcl-1 protein (Q07820 whole entry): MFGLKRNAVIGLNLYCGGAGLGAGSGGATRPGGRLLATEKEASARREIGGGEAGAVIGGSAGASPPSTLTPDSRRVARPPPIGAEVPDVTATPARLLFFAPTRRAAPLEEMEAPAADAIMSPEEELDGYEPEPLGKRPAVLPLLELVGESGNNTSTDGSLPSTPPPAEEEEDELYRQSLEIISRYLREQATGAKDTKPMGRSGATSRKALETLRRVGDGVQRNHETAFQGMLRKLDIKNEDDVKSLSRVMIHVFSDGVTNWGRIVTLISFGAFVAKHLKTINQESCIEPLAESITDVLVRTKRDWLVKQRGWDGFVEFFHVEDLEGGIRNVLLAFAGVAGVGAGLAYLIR

IC50 [1]	SMILES	further results
8.4e-08 M	COc1ccccc1CC(Oc1ncnc2sc(C3CCCO3)c(-c3ccc(OCCN4CCN(C)CC4)c(Cl)c3C)c12)C(=O)O (single isomer, unassigned) [Example 590, (2R)-2-{[(5Sa)-5-{3-chloro-2-methyl-4-[2-(4-methylpiperazin-1-yl)ethoxy]phenyl}-6-((2S or R)-tetrahydrofuran-2-yl)thieno[2,3-d]pyrimidin-4-yl]oxy}-3-(2-methoxyphenyl)propanoic acid]	–
–	Cc1c(-c2c(-c3ccc(F)o3)sc3ncnc(OC(Cc4ccccc4OCc4ccnn4C(C)C)C(=O)O)c23)ccc(OCCN2CCN(C)CC2)c1Cl [Example 182, (2R)-2-{[(5Sa)-5-{3-chloro-2-methyl-4-[2-(4-methylpiperazin-1-yl)ethoxy]phenyl}-6-(5-fluorofuran-2-yl)thieno[2,3-d]pyrimidin-4-yl]oxy}-3-(2-{[1-(propan-2-yl)-1H-pyrazol-5-yl]methoxy}phenyl)propanoic acid]	IC50 [2]: 4.4e-09 M
–	Cc1c(-c2c(-c3ccc(F)cc3)sc3ncnc(OC(Cc4ccccc4OCC(F)(F)F)C(=O)O)c23)ccc(OCCN2CCN(C)CC2)c1Cl [Example 3, (2R)-2-{[(5Sa)-5-{3-chloro-2-methyl-4-[2-(4-methylpiperazin-1-yl)ethoxy]phenyl}-6-(4-fluorophenyl)thieno[2,3-d]pyrimidin-4-yl]oxy}-3-[2-(2,2,2-trifluoroethoxy)phenyl]propanoic acid]	IC50 [2]: 8.9e-09 M
–	COc1ccccc1CC(Oc1ncnc2sc(-c3ccco3)c(-c3ccc(OCCC4CN(C)CCO4)c(Cl)c3C)c12)C(=O)O (single isomer, unassigned) [Example 318]	IC50 [2]: 3e-08 M
–	COc1nccc(COc2ccccc2C[C@@H](Oc2ncnc3sc(-c4ccc(F)c(OCCN5CCOCC5)c4)c(-c4ccc(OC)c(Cl)c4C)c23)C(=O)O)n1 [Example 699, (2R)-2-{[(5Ra)-5-(3-chloro-4-methoxy-2-methylphenyl)-6-{4-fluoro-3-[2-(morpholin-4-yl)ethoxy]phenyl}thieno[2,3-d]pyrimidin-4-yl]oxy}-3-{2-[(2-methoxypyrimidin-4-yl)methoxy]phenyl}propanoic acid]	percentage fluorescence polarisation inhibition, Mcl-1 FP (partial inhibitors, @ 1 uM test compound): 28.5% @ 1 uM
9.4e-09 M	COc1nccc(COc2ccccc2CC(Oc2ncnc3sc(-c4ccc(F)c(OCCN(C)C)c4)c(-c4ccc(OC)c(Cl)c4C)c23)C(=O)O)n1 [Example 702, (2R)-2-{[(5Sa)-5-(3-chloro-4-methoxy-2-methylphenyl)-6-{3-[2-(dimethylamino)ethoxy]-4-fluorophenyl}thieno[2,3-d]pyrimidin-4-yl]oxy}-3-{2-[(2-methoxypyrimidin-4-yl)methoxy]phenyl}propanoic acid]	–
–	Cc1c(-c2c(-c3ccco3)sc3ncnc(O[C@H](Cc4ccccc4C(F)(F)F)C(=O)O)c23)ccc(OCCN2CCN(C)CC2)c1Cl [Example 353, (2R)-2-{[(5Sa)-5-{3-chloro-2-methyl-4-[2-(4-methylpiperazin-1-yl)ethoxy]phenyl}-6-(furan-2-yl)thieno[2,3-d]pyrimidin-4-yl]oxy}-3-[2-(trifluoromethyl)phenyl]propanoic acid]	IC50 [2]: 2.8e-08 M
–	CCOC(=O)C(Cc1ccccc1OCc1ccnc(-c2ccccc2O)n1)Oc1ncnc2sc(-c3ccc(F)cc3)c(-c3ccc(OCCN4CCN(C)CC4)c(Cl)c3C)c12 [Example 793, ethyl (2R)-2-{[(5Sa)-5-{3-chloro-2-methyl-4-[2-(4-methylpiperazin-1-yl)ethoxy]phenyl}-6-(4-fluorophenyl)thieno[2,3-d]pyrimidin-4-yl]oxy}-3-(2-{[2-(2-hydroxyphenyl)pyrimidin-4-yl]methoxy}phenyl)propanoate]	IC50 [3]: 5.37e-06 M
2.1e-08 M	COc1ccccc1CC(Oc1ncnc2sc(-c3cccnc3)c(-c3ccc(OCCN4CCN(C)CC4)c(Cl)c3C)c12)C(=O)O [Example 567, (2R)-2-{[(5Sa)-5-{3-chloro-2-methyl-4-[2-(4-methylpiperazin-1-yl)ethoxy]phenyl}-6-(pyridin-3-yl)thieno[2,3-d]pyrimidin-4-yl]oxy}-3-(2-methoxyphenyl)propanoic acid]	–
1.5e-07 M	CCc1sc2ncnc(OC(Cc3ccccc3)C(=O)O)c2c1-c1ccc(OCCN2CCN(C)CC2)cc1C [Example 417, (2R)-2-[(6-ethyl-(5Sa)-5-{2-methyl-4-[2-(4-methylpiperazin-1-yl)ethoxy]phenyl}thieno[2,3-d]pyrimidin-4-yl)oxy]-3-phenylpropanoic acid]	–
2.58e-09 M	Cc1c(-c2c(-c3ccc(F)cc3)sc3ncnc(OC(Cc4ccccc4OCc4ccnn4Cc4ccncc4)C(=O)O)c23)ccc(OCCN2CCN(C)CC2)c1Cl [Example 736, (2R)-2-{[(5Sa)-5-{3-chloro-2-methyl-4-[2-(4-methylpiperazin-1-yl)ethoxy]phenyl}-6-(4-fluorophenyl)thieno[2,3-d]pyrimidin-4-yl]oxy}-3-(2-{[1-(pyridin-4-ylmethyl)-1H-pyrazol-5-yl]methoxy}phenyl)propanoic acid]	–
–	Cc1c(-c2c(-c3ccco3)sc3ncnc(O[C@@H](C(=O)O)[C@@H](O)c4ccccc4)c23)ccc(OCCN2CCN(C)CC2)c1Cl (single isomer, unassigned) [Example 342]	IC50 [2]: 3.5e-07 M
7.7e-08 M	Cc1c(Cl)cccc1-c1c(-c2ccco2)sc2ncnc(OC(Cc3ccccc3OCCN3CCN(C)CC3)C(=O)O)c12 [Example 666, (2R)-2-{[(5Sa)-5-(3-chloro-2-methylphenyl)-6-(furan-2-yl)thieno[2,3-d]pyrimidin-4-yl]oxy}-3-{2-[2-(4-methylpiperazin-1-yl)ethoxy]phenyl}propanoic acid]	–
–	CCN(C)CCOc1ccc(-c2c(-c3ccc(F)cc3)sc3ncnc(OC(Cc4ccccc4OCc4ccnc(-c5ccccc5F)n4)C(=O)OCC(=O)N(C)C)c23)c(C)c1Cl [Example 822, 2-(dimethylamino)-2-oxoethyl (2R)-2-{[(5Sa)-5-(3-chloro-4-{2-[ethyl(methyl)amino]ethoxy}-2-methylphenyl)-6-(4-fluorophenyl)thieno[2,3-d]pyrimidin-4-yl]oxy}-3-(2-{[2-(2-fluorophenyl)pyrimidin-4-yl]methoxy}phenyl)propanoate]	IC50 [3]: 2.4e-06 M
4.4e-08 M	C=C(C)c1sc2ncnc(O[C@H](Cc3ccccc3)C(=O)O)c2c1-c1cccc(Cl)c1C (single isomer, unassigned) [Example 720]	–
1.6e-08 M	COc1ccccc1C[C@@H](Oc1ncnc2sc(-c3ccc(F)cc3)c(-c3ccc(CCCN4CCN(C)CC4)c(Cl)c3C)c12)C(=O)O (single isomer, unassigned) [Example 653]	–
–	CCOC(=O)C(Cc1ccccc1OCc1ccnc(-c2ccccc2CO)n1)Oc1ncnc2sc(-c3ccc(F)cc3)c(-c3ccc(OCCN4CCN(C)CC4)c(Cl)c3C)c12 [Example 856, ethyl (2R)-2-{[(5Sa)-5-{3-chloro-2-methyl-4-[2-(4-methylpiperazin-1-yl)ethoxy]phenyl}-6-(4-fluorophenyl)thieno[2,3-d]pyrimidin-4-yl]oxy}-3-[2-({2-[2-(hydroxymethyl)phenyl]pyrimidin-4-yl}methoxy)phenyl]propanoate]	IC50 [3]: 9.79e-07 M
–	COc1ccccc1CC(Oc1ncnc2sc(-c3ccc(F)cc3)c(-c3ccc(OCCN4CCN(C)CC4)c(Cl)c3C)c12)C(=O)O [Example 1, (2R)-2-{[(5Sa)-5-{3-chloro-2-methyl-4-[2-(4-methylpiperazin-1-yl)ethoxy]phenyl}-6-(4-fluorophenyl)thieno[2,3-d]pyrimidin-4-yl]oxy}-3-(2-methoxyphenyl)propanoic acid]	IC50 [2]: 8e-08 M
9.6e-08 M	CCc1sc2ncnc(OC(Cc3ccccc3)C(=O)O)c2c1-c1ccc(OCCOC)c(Cl)c1C [Example 424, (2R)-2-({(5Sa)-5-[3-chloro-4-(2-methoxyethoxy)-2-methylphenyl]-6-ethylthieno[2,3-d]pyrimidin-4-yl}oxy)-3-phenylpropanoic acid]	–
3.9e-06 M	COc1ccccc1C[C@@H](Oc1ncnc2sc(-c3ccc(F)cc3)c(-c3cc(F)c(OCCN4CCN(C)CC4)c(Cl)c3C)c12)C(=O)O (single isomer, unassigned) [Example 665]	–
5.5e-07 M	CC#Cc1sc2ncnc(OC(Cc3ccccc3OC)C(=O)O)c2c1-c1cc(C)c(OCCN2CCN(C)CC2)c(Cl)c1C [Example 474, (2R)-2-{[(5Ra)-5-{3-chloro-2,5-dimethyl-4-[2-(4-methylpiperazin-1-yl)ethoxy]phenyl}-6-(prop-1-yn-1-yl)thieno[2,3-d]pyrimidin-4-yl]oxy}-3-(2-methoxyphenyl)propanoic acid]	–
8.24e-09 M	Cc1c(-c2c(-c3ccc(F)cc3)sc3ncnc(O[C@H](Cc4ccccc4OCc4ccnc(-c5ccccc5O)n4)C(=O)O)c23)ccc(OCCN2CCNCC2)c1Cl [Example 749, (2R)-2-{[(5Sa)-5-{3-chloro-2-methyl-4-[2-(piperazin-1-yl)ethoxy]phenyl}-6-(4-fluorophenyl)thieno[2,3-d]pyrimidin-4-yl]oxy}-3-(2-{[2-(2-hydroxyphenyl)pyrimidin-4-yl]methoxy}phenyl)propanoic acid]	–
–	CCOC(=O)C(Cc1ccccc1OCc1ccnc(-c2ccccc2O)n1)Oc1ncnc2sc(-c3ccc(F)cc3)c(-c3ccc(OCCN4CCNCC4)c(Cl)c3C)c12 [Example 798, ethyl (2R)-2-{[(5Sa)-5-{3-chloro-2-methyl-4-[2-(piperazin-1-yl)ethoxy]phenyl}-6-(4-fluorophenyl)thieno[2,3-d]pyrimidin-4-yl]oxy}-3-(2-{[2-(2-hydroxyphenyl)pyrimidin-4-yl]methoxy}phenyl)propanoate]	IC50 [3]: 5.15e-06 M
–	CCOC(=O)C(Cc1ccccc1OCc1ccnc(-c2ccccc2OC)n1)Oc1ncnc2sc(-c3ccc(F)cc3)c(-c3ccc(OCCN4CCNCC4)c(Cl)c3C)c12 [Example 795, ethyl (2R)-2-{[(5Sa)-5-{3-chloro-2-methyl-4-[2-(piperazin-1-yl)ethoxy]phenyl}-6-(4-fluorophenyl)thieno[2,3-d]pyrimidin-4-yl]oxy}-3-(2-{[2-(2-methoxyphenyl)pyrimidin-4-yl]methoxy}phenyl)propanoate]	IC50 [3]: 8.5e-07 M
